Data: patent US20080027001A1, “NOGO RECEPTOR FUNCTIONAL MOTIFS, PEPTIDE MIMETICS, AND MUTATED FUNCTIONAL MOTIFS RELATED THERETO, AND METHODS OF USING THE SAME” (priority 2006, published 2008)
Several values for one entry are separate records, joined by “and”; a condition that tells them apart may be missing. Identical values can stand only once. Entries after “also recorded” stand apart in the source; their conditions may differ. Bridges are numbered along the chain shown (N, C = ends).

Assays:
cerebellar neurons [1] = assay: Neurite outgrowth assay, inhibition by GT1b antibody; type: cell-based, rat; details: peptide 100 μg/ml; antibody tested at up to 40 μg/ml
Method: Cerebellar neurons isolated from postnatal day ⅔ rat pups were cultured over monolayers of 3T3 cells (Doherty et al. (1991) Neuron 6(2):247-58) essentially as previously described (Williams et al. (1994) Neuron 13(3):583-94). Monolayers were established by seeding ˜80,000 cells into individual chambers of an eight-chamber tissue culture slide coated with poly-L-lysine and fibronectin. The cell lines, and monolayers, were maintained in Dulbecco's modified Eagle's medium supplemented with 10% fetal calf serum (FCS). […] Following careful fixation with 4% paraformaldehyde, the neurons were stained with a GAP-43 antibody, and the mean length of the longest neurite per cell was measured for ˜120-150 neurons, again as previously described (Williams et al. (1994) supra). […] The average of total neurite lengths from each neuron was measured automatically by the MetaXpress Neurite Outgrowth module (Molecular Devices, Sunnyvale, Calif.) from at least 200 neurons per well, in triplicate wells per experiment. […]

cerebellar neurons [2] = assay: Neurite outgrowth assay, inhibition by soluble MAG-Fc; type: cell-based, rat; details: for effect on MAG-Fc-suppressed neurite outgrowth / antagonism of MAG-mediated inhibition of axonal growth: peptide 100 μg/ml; for effect on MAG-Fc-suppressed neurite outgrowth: MAG-Fc 25 μg/ml (FIG. 5A); for peptide concentration with maximal effects on neurite outgrowth / peptide concentration with significant effects on neurite outgrowth: MAG-Fc 20 μg/ml (FIG. 6A); for antagonism of inhibitory activity of MAG-Fc: peptide 50 μg/ml (60 μM); for antagonism of inhibitory activity of MAG-Fc / efficacy of peptide relative to NRL2b over a range of concentrations: MAG-Fc 20 μg/ml; for antagonism of MAG-mediated inhibition of axonal growth: MAG-Fc 20 μg/ml (FIG. 6B); for efficacy of peptide relative to NRL2b over a range of concentrations: FIG. 6C, 6D, position 2 effect at 25-50 μg/ml
Method: (§1) Cerebellar neurons isolated from postnatal day ⅔ rat pups were cultured over monolayers of 3T3 cells (Doherty et al. (1991) Neuron 6(2):247-58) essentially as previously described (Williams et al. (1994) Neuron 13(3):583-94). Monolayers were established by seeding ˜80,000 cells into individual chambers of an eight-chamber tissue culture slide coated with poly-L-lysine and fibronectin. The cell lines, and monolayers, were maintained in Dulbecco's modified Eagle's medium supplemented with 10% fetal calf serum (FCS). Cocultures were established by removing the media from the monolayers and seeding ˜6000 dissociated cerebellar neurons into each well in SATO medium (modified from Doherty et al. (1990) Neuron 5(2):209-19; Dulbecco's modified Eagle's medium supplemented with 2% FBS, 33% bovine albumin, 0.62 μg/ml progesterone, 161 μg/ml putrescine, 4 μg/ml L-thyroxine, 0.387 μg/ml selenium, and 3.37 μg/ml tri-iodo-thyronine (components from Sigma-Aldrich, St. Louis, Mo.)). Monolayers were established for 24 hours prior to addition of the neurons and the cultures were maintained for ˜23-27 hr. Following careful fixation with 4% paraformaldehyde, the neurons were stained with a GAP-43 antibody, and the mean length of the longest neurite per cell was measured for ˜120-150 neurons, again as previously described (Williams et al. (1994) supra). For neurite outgrowth on substrate-bound MAG, 96-well plates were coated with a thin layer of nitrocellulose (Bio-Rad, Hercules, Calif.) before incubating with 1 μg/ml of MAG(d1-5) (a chimeric construct containing domains 1-5 of the extracellular portion of MAG) at 4° C. overnight. Wells were subsequently coated with 17 μg/ml of poly-D-lysine (Sigma, St. Louis, Mo.), followed by incubation in Dulbecco's modified Eagle's medium containing 10% FCS. Cerebellar granule neurons were dissociated and seeded at a density of 10^4 cells per well. Cells were cultured for 18-20 h before being fixed with 4% paraformaldehyde and stained with a neuronal-specific anti-III-tubulin antibody, Tuj 1 (Covance, Emeryville, Calif.). The average of total neurite lengths from each neuron was measured automatically by the MetaXpress Neurite Outgrowth module (Molecular Devices, Sunnyvale, Calif.) from at least 200 neurons per well, in triplicate wells per experiment. Results were repeated independently more than three times.
(§2) Synthetic peptides were all obtained from a commercial supplier (Multiple Peptide Systems, San Diego, Calif.). All peptides were purified to the highest grade by reverse-phase HPLC and obtained at the highest level of purity (>97%). With all peptides, there was no indication of higher molecular weight species. Where peptide sequences are underlined, this denotes a peptide that has been cyclized via a disulfide bond between the given cysteine residues. All peptides were acetylated (e.g., denoted with “N-Ac-”) and amide blocked (e.g., denoted with “—NH2”). Recombinant MAG-Fc chimera was obtained from R&D Systems (Minneapolis, Minn.) and used at final concentrations ranging from 5-25 μg/ml. The monoclonal antibody to GT1b (clone GMR5) was obtained from Seikagaku America (Falmouth, Mass.) and was used at a final concentration of 20 μg/ml. All reagents were diluted into the coculture media and, in general, added to the cultures just prior to the plating of the neurons. GT1b and GM1 were obtained as gifts from Dr. Gino Toffano (Libero, Italy) and University of Milan, and asialo-GM1 was obtained from Sigma (St. Louis, Mo.). The recombinant NgR1(310)-fc and MAG(d1-5) chimeras were expressed and purified in-house. Pharmacological reagents were obtained from Calbiochem (La Jolla, Calif.) and/or Sigma. For reagents used in cell-surface NgR binding assays, please see Examples 1.5 and 1.7. For reagents used in the cell surface p75NTR-NgR-AP binding assay, please see Example 1.13.
(§3) In contrast, a soluble MAG-Fc chimera inhibits neurite outgrowth in a manner that depends upon both ganglioside and NgR function. […]

cerebellar neurons [3] = assay: Neurite outgrowth assay, control media (basal outgrowth); type: cell-based, rat; details: for effect on basal neurite outgrowth: peptide 100 μg/ml, without MAG-Fc
Method: as §1, §2, §3

NgR1(310)-fc = biological target: T1, NgR1(310)-fc (Homo sapiens, UniProt Q9BZR6); assay: Analytical ultracentrifugation (sedimentation velocity), wild type receptor; type: binding; details: ganglioside 0 to 48 μM (FIG. 3A-C)
T1 construct: made in house; host or cells: mammalian expression vector (pSMED2)
Source text: Human Nogo Receptor 1 (NgR1)(310)-fc point mutants (FRG-1 (R151E); FRG-2 (R279E); FRG-3 (R199E), and FRG-4 (R151E/R279E/R199E)) were constructed by Genewiz (North Brunswick, N.J.) using their site-directed mutagenesis technology. The template used to construct all the described mutants was wild type human NgR1(310)-fc (SEQ ID NO:59), which was generated by fusing a nucleotide sequence corresponding to the first 310 amino acid of Human Nogo Receptor 1 to a human Fc fragment in a mammalian expression vector (the sequence of wild type NgR1(310)-fc and the expression vector is set forth in SEQ ID NO:60 and a schematic of the expression vector is shown in FIG. 11). […]
Sedimentation velocity experiments were performed on a Beckman XLI/XLA analytical ultracentrifuge. […] Scans were recorded at 20° C. with a rotor speed of 35,000 rpm, and the signal was detected at 230 nm with a spacing of 0.006 in the continuous mode. Sedimentation profiles were analyzed by the program Sedfit (Schuck (2000) Biophys. J. 78:1606-19) to obtain the sedimentation coefficient distributions. The solvent density (1.006) and partial specific volume (0.72) were calculated using the program Sednterp (Laue et al. (1992) Analytical Ultracentrifugation in Biochemistry and Polymer Science (Harding, S. E., Towe, A. J. and Horton, J. C., eds.) pp. 90-125, Royal Society of Chemistry, Cambridge, U.K). […]

[4] = without MAG-Fc (data not shown)

T1 sequence (Q9BZR6 with tags, fused parts or gaps limits assumed): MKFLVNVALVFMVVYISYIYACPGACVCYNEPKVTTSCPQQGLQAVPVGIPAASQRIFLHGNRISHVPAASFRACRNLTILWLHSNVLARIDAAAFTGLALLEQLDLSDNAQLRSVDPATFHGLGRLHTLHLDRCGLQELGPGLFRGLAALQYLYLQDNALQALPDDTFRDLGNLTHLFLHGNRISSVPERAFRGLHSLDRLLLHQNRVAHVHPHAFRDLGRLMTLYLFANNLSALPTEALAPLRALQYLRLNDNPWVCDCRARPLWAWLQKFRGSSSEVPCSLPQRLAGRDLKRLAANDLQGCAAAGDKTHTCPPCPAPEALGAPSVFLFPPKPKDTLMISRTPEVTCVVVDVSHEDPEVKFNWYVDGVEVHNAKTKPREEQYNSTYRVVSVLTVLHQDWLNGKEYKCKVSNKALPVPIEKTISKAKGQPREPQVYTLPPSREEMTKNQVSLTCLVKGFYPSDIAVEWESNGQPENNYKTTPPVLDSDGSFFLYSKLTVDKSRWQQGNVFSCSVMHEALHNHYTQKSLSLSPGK

Q: Which “antagonism of GT1b antibody inhibition of neurite outgrowth” value (cerebellar neurons [1]) does the source give for “N-Ac-CLQKFRGSSC-NH2 (disulfide 1-10 (inferred)) [NRL2]” here?
A: fully inhibited the response; also recorded: failed to inhibit neurite outgrowth

Q: And the peptide concentration at which response reaches plateau (cerebellar neurons [2]; MAG-Fc 25 μg/ml (FIG. 5B))?
A: ~45 µM

Q: And the “peptide concentration with near maximal inhibitory activity” value (cerebellar neurons [2]; MAG-Fc present)?
A: ~45 µM

Q: And the “effect on MAG-Fc-suppressed neurite outgrowth” value (cerebellar neurons [2])?
A: failed to substantially inhibit neurite outgrowth

Q: What about the “effect on basal neurite outgrowth” value (cerebellar neurons [3]) of the same substance?
A: no effect

Q: And the “effect on neurite outgrowth in control media” value (cerebellar neurons [3]; tested at up to 200 μg/ml)?
A: no significant effect

Q: How did the “effect on MAG-Fc-suppressed neurite outgrowth” value (cerebellar neurons [2]) turn out when “N-Ac-CAGRDLKRC-NH2 (disulfide 1-9 (inferred)) [NRL4]” was run?
A: no effect

Q: What about the “effect on basal neurite outgrowth” value (cerebellar neurons [3]) of the same substance?
A: no effect

Q: Which “peptide concentration with maximal effects on neurite outgrowth” value (cerebellar neurons [2]) does the source give for “N-Ac-CQKFRGC-NH2 (disulfide 1-7 (inferred)) [NRL2b]” here?
A: 50 μg/ml and 60 μM

Q: What about the “peptide concentration with significant effects on neurite outgrowth” value (cerebellar neurons [2]) of the same substance?
A: 25 μg/ml and 30 μM

Q: What about the “antagonism of inhibitory activity of MAG-Fc” value (cerebellar neurons [2]) of the same substance?
A: effectively antagonized

Q: What about the “effect on neurite outgrowth in control media” value (cerebellar neurons [3]; [4]) of the same substance?
A: no effect

Q: “N-Ac-CYNEPKVTC-NH2 (disulfide 1-9 (inferred)) [NRL1]” was tested. Which “effect on MAG-Fc-suppressed neurite outgrowth” value (cerebellar neurons [2]) did it give?
A: no effect

Q: What about the “effect on basal neurite outgrowth” value (cerebellar neurons [3]) of the same substance?
A: no effect

Q: For “N-Ac-CSLPQRLAC-NH2 (disulfide 1-9 (inferred)) [NRL3]”, which “effect on MAG-Fc-suppressed neurite outgrowth” value (cerebellar neurons [2]) is on record?
A: no effect

Q: What about the “effect on basal neurite outgrowth” value (cerebellar neurons [3]) of the same substance?
A: no effect

Q: Which “antagonism of MAG-mediated inhibition of axonal growth” value (cerebellar neurons [2]) does the source give for QKFRG (listed as Homo sapiens) here?
A: did not antagonize

Q: “N-Ac-CQAFRGC-NH2 (disulfide 1-7 (inferred))” was tested. Which “efficacy of peptide relative to NRL2b over a range of concentrations” value (cerebellar neurons [2]) did it give?
A: no obvious effect on the efficacy of the peptide

Q: And the “antagonism of MAG-mediated inhibition of axonal growth” value (cerebellar neurons [2])?
A: as effective as NRL2b

Q: Which results are given for “N-Ac-CQKARGC-NH2 (disulfide 1-7 (inferred))”?
A: efficacy of peptide relative to NRL2b over a range of concentrations (cerebellar neurons [2]): reduced efficacy by about two-fold; antagonism of MAG-mediated inhibition of axonal growth (cerebellar neurons [2]): as effective as NRL2b

Q: How did the “antagonism of MAG-mediated inhibition of axonal growth” value (cerebellar neurons [2]) turn out when “N-Ac-CQKFRAC-NH2 (disulfide 1-7 (inferred))” was run?
A: ineffective

Q: Which results are given for “N-Ac-CKFRGSC-NH2 (disulfide 1-7 (inferred)) [NRL2a]”?
A: peptide concentration with maximal effects on neurite outgrowth (cerebellar neurons [2]): 50 μg/ml and 60 μM; peptide concentration with significant effects on neurite outgrowth (cerebellar neurons [2]): 25 μg/ml and 30 μM; antagonism of inhibitory activity of MAG-Fc (cerebellar neurons [2]): effectively antagonized; effect on neurite outgrowth in control media (cerebellar neurons [3]; [4]): no effect

Q: For “N-Ac-CQKFAGC-NH2 (disulfide 1-7 (inferred))”, which “antagonism of MAG-mediated inhibition of axonal growth” value (cerebellar neurons [2]) is on record?
A: ineffective

Q: Which “interaction with NgR1(310)-fc (shift of sedimentation coefficient)” value (NgR1(310)-fc) does the source give for asialo-GM1 here?
A: did not interact; also recorded: No change in sedimentation coefficient
